Read-outs that look alike come from different tables or passages of the source.
Legend:
[1] = tested on: Mycosphaerella graminicola; Anamorph: Septoria tritici; Bayer Code SEPTTR; test: Leaf blotch of wheat, foliar fungicide treatment, one day protectant (1DP) or three day curative (3DC); format: in vivo, Septoria tritici on wheat plants (variety Yuma); conditions: Zymoseptoria tritici, percent disease control rating
[2] = tested on: Venturia inaequalis; Bayer Code VENTIN; test: Apple scab; format: in vivo; conditions: 24 h, % disease control rating, one day protectant; for pest or weed control at 25 ppm: read-out: VENTIN 1 DP 25 ppm; for pest or weed control at 75 ppm: read-out: VENTIN 1 DP 75 ppm
[3] = tested on: Cercospora beticola; Bayer Code CERCBE; test: Leaf spot of sugar beets; format: in vivo, Cercospora beticola on sugar beets (variety HH-88); conditions: 24 h, % disease control rating, one day protectant; for pest or weed control at 25 ppm: read-out: CERCBE 1 DP 25 ppm; for pest or weed control at 75 ppm: read-out: CERCBE 1 DP 75 ppm
[4] = 24 h, one day protectant (1DP), read-out: SETTTR 1DP 25 ppm
[5] = 24 h, one day protectant (1DP), read-out: SEPTTR 1DP 100 ppm
[6] = 72 h, three day curative (3DC), read-out: SEPTTR 3DC 25 ppm
[7] = 72 h, three day curative (3DC), read-out: SEPTTR 3DC 100 ppm

SMILES: CC(Oc1ncc(F)c(N)n1)c1ccc(F)cc1 (centres unmarked) [Compound 3, 5-Fluoro-2-[1-(4-fluorophenyl)ethoxy]pyrimidin-4-ylamine]
- pest or weed control at 25 ppm [1, 4]: 76 to 100%
- pest or weed control at 100 ppm [1, 5]: 76 to 100%
- pest or weed control at 25 ppm [1, 6]: 76 to 100%
- pest or weed control at 100 ppm [1, 7]: 76 to 100%
- pest or weed control at 25 ppm [2]: 0 to 25%
- pest or weed control at 75 ppm [2]: 76 to 100%

SMILES: C/C(=N\Oc1ncc(F)c(N)n1)c1ccccc1 [Compound 4, 1-Phenyl-ethanone-O-(4-amino-5-fluoropyrimidin-2-yl)oxime]
- pest or weed control at 25 ppm [3]: 76 to 100%
- pest or weed control at 75 ppm [3]: 76 to 100%
- pest or weed control at 25 ppm [1, 4]: 76 to 100%
- pest or weed control at 100 ppm [1, 5]: 76 to 100%
- pest or weed control at 25 ppm [1, 6]: 76 to 100%
- pest or weed control at 100 ppm [1, 7]: 76 to 100%
- pest or weed control at 25 ppm [2]: 76 to 100%
- pest or weed control at 75 ppm [2]: 76 to 100%

SMILES: Nc1nc(OCc2cccs2)ncc1F [Compound 5, 5-Fluoro-2-(thiophen-2-ylmethoxy)-pyrimidin-4-ylamine]
- pest or weed control at 25 ppm [1, 4]: 76 to 100%
- pest or weed control at 100 ppm [1, 5]: 76 to 100%
- pest or weed control at 25 ppm [1, 6]: 76 to 100%
- pest or weed control at 100 ppm [1, 7]: 76 to 100%
- pest or weed control at 25 ppm [2]: 76 to 100%
- pest or weed control at 75 ppm [2]: 76 to 100%

SMILES: CN1CCN(CNc2nc(OCc3ccc(F)cc3)ncc2F)CC1 [Compound 7, [5-Fluoro-2-(4-fluorobenzyloxy)pyrimidin-4-yl]-(4-methylpiperazin-1-ylmethyl)amine]
- pest or weed control at 25 ppm [3]: 51 to 75%
- pest or weed control at 75 ppm [3]: 51 to 75%
- pest or weed control at 25 ppm [1, 4]: 76 to 100%
- pest or weed control at 100 ppm [1, 5]: 76 to 100%
- pest or weed control at 25 ppm [1, 6]: 76 to 100%
- pest or weed control at 100 ppm [1, 7]: 76 to 100%
- pest or weed control at 25 ppm [2]: 76 to 100%
- pest or weed control at 75 ppm [2]: 76 to 100%

SMILES: CCOC(=O)C(=O)Nc1nc(OCc2ccc(F)cc2)ncc1F [Compound 11, N-[5-Fluoro-2-(4-fluorobenzyloxy)pyrimidin-4-yl]oxalamic acid ethyl ester]
- pest or weed control at 25 ppm [3]: 0 to 25%
- pest or weed control at 75 ppm [3]: 0 to 25%
- pest or weed control at 25 ppm [1, 4]: 76 to 100%
- pest or weed control at 100 ppm [1, 5]: 76 to 100%
- pest or weed control at 25 ppm [1, 6]: 76 to 100%
- pest or weed control at 100 ppm [1, 7]: 76 to 100%
- pest or weed control at 25 ppm [2]: 76 to 100%
- pest or weed control at 75 ppm [2]: 76 to 100%

SMILES: CCC(Nc1nc(OCc2ccc(F)cc2)ncc1F)OC (centres unmarked) [Compound 14, [5-Fluoro-2-(4-fluorobenzyloxy)pyrimidin-4-yl](1-methoxypropyl)amine]
- pest or weed control at 25 ppm [3]: 0 to 25%
- pest or weed control at 75 ppm [3]: 0 to 25%
- pest or weed control at 25 ppm [1, 4]: 76 to 100%
- pest or weed control at 100 ppm [1, 5]: 76 to 100%
- pest or weed control at 25 ppm [1, 6]: 76 to 100%
- pest or weed control at 100 ppm [1, 7]: 76 to 100%
- pest or weed control at 25 ppm [2]: 76 to 100%
- pest or weed control at 75 ppm [2]: 76 to 100%

SMILES: CN(C)/C=N/c1nc(OCc2ccc(F)cc2)ncc1F [Compound 20, N-[5-Fluoro-2-(4-fluorobenzyloxy)pyrimidin-4-yl]-N,N dimethyl-formamidine]
- pest or weed control at 25 ppm [1, 4]: 76 to 100%
- pest or weed control at 100 ppm [1, 5]: 76 to 100%
- pest or weed control at 25 ppm [1, 6]: 76 to 100%
- pest or weed control at 100 ppm [1, 7]: 76 to 100%
- pest or weed control at 25 ppm [2]: 51 to 75%
- pest or weed control at 75 ppm [2]: 76 to 100%

SMILES: N#CN/C=N/c1nc(OCc2ccc(F)cc2)ncc1F [Compound 23, N-[5-Fluoro-2-(4-fluorobenzyloxy)pyrimidin-4-yl]-N′-cyanoformamidine]
- pest or weed control at 25 ppm [3]: 0 to 25%
- pest or weed control at 75 ppm [3]: 51 to 75%
- pest or weed control at 25 ppm [1, 4]: 76 to 100%
- pest or weed control at 100 ppm [1, 5]: 76 to 100%
- pest or weed control at 25 ppm [1, 6]: 76 to 100%
- pest or weed control at 100 ppm [1, 7]: 76 to 100%
- pest or weed control at 25 ppm [2]: 51 to 75%
- pest or weed control at 75 ppm [2]: 76 to 100%

SMILES: CC/C(=N\c1nc(OCc2ccc(F)cc2)ncc1F)N(C)C [Compound 24, N′-[5-Fluoro-2-(4-fluorobenzyloxy)pyrimidin-4-yl]-N,N-dimethyl-propionamidine]
- pest or weed control at 25 ppm [3]: 0 to 25%
- pest or weed control at 75 ppm [3]: 0 to 25%
- pest or weed control at 25 ppm [1, 4]: 76 to 100%
- pest or weed control at 100 ppm [1, 5]: 76 to 100%
- pest or weed control at 25 ppm [1, 6]: 76 to 100%
- pest or weed control at 100 ppm [1, 7]: 76 to 100%
- pest or weed control at 25 ppm [2]: 26 to 50%
- pest or weed control at 75 ppm [2]: 76 to 100%

SMILES: COc1cccc(COc2ncc(F)c(N)n2)c1 [Compound 35]
- pest or weed control at 25 ppm [1, 4]: 76 to 100%
- pest or weed control at 100 ppm [1, 5]: 76 to 100%
- pest or weed control at 25 ppm [1, 6]: 76 to 100%
- pest or weed control at 100 ppm [1, 7]: 76 to 100%
- pest or weed control at 25 ppm [2]: 76 to 100%
- pest or weed control at 75 ppm [2]: 76 to 100%

SMILES: CCCNC(=O)N(C(=O)NCCC)c1nc(OCc2cccc(OC)c2)ncc1F [Compound 36, 1-[5-Fluoro-2-(3-methoxybenzyloxy)pyrimidin-4-yl](3′-propylcarbamoyl)-3-propyl-urea]
- pest or weed control at 25 ppm [3]: 51 to 75%
- pest or weed control at 75 ppm [3]: 51 to 75%
- pest or weed control at 25 ppm [1, 4]: 26 to 50%
- pest or weed control at 100 ppm [1, 5]: 76 to 100%
- pest or weed control at 25 ppm [1, 6]: 51 to 75%
- pest or weed control at 100 ppm [1, 7]: 76 to 100%
- pest or weed control at 25 ppm [2]: 51 to 75%
- pest or weed control at 75 ppm [2]: 76 to 100%

SMILES: Nc1nc(OCc2ccccc2)ncc1F [Compound 46]
- pest or weed control at 25 ppm [1, 4]: 76 to 100%
- pest or weed control at 100 ppm [1, 5]: 76 to 100%
- pest or weed control at 25 ppm [1, 6]: 76 to 100%
- pest or weed control at 100 ppm [1, 7]: 76 to 100%
- pest or weed control at 25 ppm [2]: 76 to 100%
- pest or weed control at 75 ppm [2]: 76 to 100%

From patent US9204653B2, “5-fluoro pyrimidine derivatives” (DOW AGROSCIENCES LLC, priority 2008, dated 2015)
